From US9169229B2, “Method for producing purified dialkyl-furan-2,5-dicarboxylate by physical separation and solid liquid separation” (Eastman Chemical Company, priority 2012, dated 2015)

Legend:
[1] = Solubility of DMFD in water (jacketed solubility cell, samples analyzed by gas chromatography); assay type: physicochemical
Method: (§1) The solubility of DMFD in water and methanol was tested according to the following procedure: A jacketed 120 ml solubility cells equipped with a condenser, a digital thermometer, a nitrogen blanket and connected to a circulating bath capable of heating/cooling was charged with […] and water or methanol. The heterogeneous mixture was heated to the desired temperature and sample was taken using preheated fritted glass pipette. The samples were analyzed using gas chromatography.

[2] = Solubility of DMFD in methanol (jacketed solubility cell, samples analyzed by gas chromatography); assay type: physicochemical
Method: as §1

DMFD Solubility (wt %) in Water ([1]; T 1.4 ° C.): BDL
DMFD Solubility (wt %) in Water ([1]; T 13.1 ° C.): BDL
DMFD Solubility (wt %) in Water ([1]; T 26.6 ° C.): BDL
DMFD Solubility (wt %) in Water ([1]; T 35.6 ° C.): BDL
DMFD Solubility (wt %) in Water ([1]; T 47.0 ° C.): 0.1 wt %
DMFD Solubility (wt %) in Water ([1]; T 56.6 ° C.): 0.2 wt %
DMFD Solubility (wt %) in Water ([1]; T 63.9 ° C.): 0.3 wt %
DMFD Solubility (wt %) in Water ([1]; T 74.6 ° C.): 0.4 wt %
DMFD Solubility (wt %) in Water ([1]; T 89.5 ° C.): 0.9 wt %
DMFD Solubility (wt %) in Water ([1]; T 97.5 ° C.): 1.3 wt %
DMFD Solubility (wt %) in Methanol ([2]; T 1.0 ° C.): 0.6 wt %
DMFD Solubility (wt %) in Methanol ([2]; T 14.1 ° C.): 1.4 wt %
DMFD Solubility (wt %) in Methanol ([2]; T 26.3 ° C.): 2.8 wt %
DMFD Solubility (wt %) in Methanol ([2]; T 35.3 ° C.): 4.5 wt %
DMFD Solubility (wt %) in Methanol ([2]; T 46.6 ° C.): 8.7 wt %
DMFD Solubility (wt %) in Methanol ([2]; T 56.1 ° C.): 15.4 wt %
DMFD Solubility (wt %) in Methanol ([2]; T 61.3 ° C.): 20.8 wt %
Compound: COC(=O)c1ccc(C(=O)OC)o1 [DMFD, dimethyl furan-2,5-dicarboxylate]
solubility of DMFD in water compared to methanol (in words) ([1]; temperature points from about 1° C. to about 61° C.): very low solubility in water compared to methanol
